± gives the expanded uncertainty stated by the source.
Details: 323.15 K, Liquid, Vibrating tube method

CCCCC(=O)OCC(COC(=O)CCCC)(COC(=O)CCCC)COC(=O)CCCC [pentaerythritol tetrapentanoate]
Details | mass density [kg/m3]
112.87 kPa | 994.7 ± 1.2
115.82 kPa | 994.7 ± 1.2
118.77 kPa | 994.7 ± 1.2
121.05 kPa | 994.6 ± 1.2
124.52 kPa | 994.7 ± 1.2
129.04 kPa | 994.6 ± 1.2
133.91 kPa | 994.8 ± 1.2
140.34 kPa | 994.7 ± 1.2
147.99 kPa | 994.8 ± 1.2
159.99 kPa | 994.7 ± 1.2
173.53 kPa | 994.6 ± 1.2
190.4 kPa | 994.6 ± 1.2
218.21 kPa | 994.8 ± 1.2
249.16 kPa | 994.8 ± 1.2
296.4 kPa | 994.7 ± 1.2
338.3 kPa | 994.8 ± 1.2
358.5 kPa | 994.8 ± 1.2
373.8 kPa | 994.9 ± 1.2
387.5 kPa | 994.7 ± 1.2
401.6 kPa | 994.8 ± 1.2
416.9 kPa | 994.9 ± 1.2
429 kPa | 995 ± 1.2
441.9 kPa | 995 ± 1.2
455.3 kPa | 995 ± 1.2
472.5 kPa | 994.9 ± 1.2
488.1 kPa | 994.9 ± 1.2
504.6 kPa | 995 ± 1.2
525.8 kPa | 995 ± 1.2
543.7 kPa | 995 ± 1.2
564 kPa | 995 ± 1.2
582.3 kPa | 995 ± 1.2
601.7 kPa | 995 ± 1.2
627.6 kPa | 995.1 ± 1.2
645.4 kPa | 995.1 ± 1.2
665.2 kPa | 995.1 ± 1.2
681.1 kPa | 995.1 ± 1.2
697.1 kPa | 995 ± 1.2
718 kPa | 995.2 ± 1.2
755.5 kPa | 995 ± 1.2
823.3 kPa | 995.1 ± 1.2
846.7 kPa | 995.1 ± 1.2
871.2 kPa | 995.4 ± 1.2
903.5 kPa | 995.2 ± 1.2
930.1 kPa | 995.3 ± 1.2
958.1 kPa | 995.3 ± 1.2
984.8 kPa | 995.4 ± 1.2
1006.3 kPa | 995.3 ± 1.2
1041.8 kPa | 995.4 ± 1.2
1060 kPa | 995.3 ± 1.2
1082.2 kPa | 995.4 ± 1.2
1101.7 kPa | 995.3 ± 1.2
1121.7 kPa | 995.4 ± 1.2
1146.9 kPa | 995.5 ± 1.2
1168.2 kPa | 995.4 ± 1.2
1191 kPa | 995.4 ± 1.2
1319.1 kPa | 995.2 ± 1.2
1380.2 kPa | 995.5 ± 1.2
1416.2 kPa | 995.6 ± 1.2
1447.4 kPa | 995.6 ± 1.2
1479.7 kPa | 995.8 ± 1.2
1512.7 kPa | 995.6 ± 1.2
1698.1 kPa | 995.8 ± 1.2
1720.3 kPa | 995.8 ± 1.2
1747.2 kPa | 995.8 ± 1.2
1770.3 kPa | 995.8 ± 1.2
1793.7 kPa | 995.8 ± 1.2
1822.9 kPa | 995.9 ± 1.2
1873.2 kPa | 995.9 ± 1.2
2015.2 kPa | 996.1 ± 1.2
2044.7 kPa | 996.1 ± 1.2
2080.6 kPa | 996 ± 1.2
2111.5 kPa | 996.1 ± 1.2
2143.5 kPa | 996.3 ± 1.2
2327.6 kPa | 996.2 ± 1.2
2364.9 kPa | 996.1 ± 1.2
2402.4 kPa | 996.3 ± 1.2
2448.3 kPa | 996.3 ± 1.2
2487.7 kPa | 996.4 ± 1.2
2528.3 kPa | 996.4 ± 1.2
2578.1 kPa | 996.3 ± 1.2

From the NIST ThermoML archive (doi:10.1021/je060271a)
